This passage reports Ki results from US7879862B2, “Pyrazolo[1,5-alpha]pyrimidinyl derivatives useful as corticotropin-releasing factor (CRF) receptor antagonists” (SmithKline Beecham (Cork) Limited, priority 2004, dated 2011).

Structures are written as SMILES.

One assay deals with T1, human CRF receptors (Homo sapiens, UniProt P34998).
T1 construct: expressed in transfected cells
T1 sequence (P34998 24-415): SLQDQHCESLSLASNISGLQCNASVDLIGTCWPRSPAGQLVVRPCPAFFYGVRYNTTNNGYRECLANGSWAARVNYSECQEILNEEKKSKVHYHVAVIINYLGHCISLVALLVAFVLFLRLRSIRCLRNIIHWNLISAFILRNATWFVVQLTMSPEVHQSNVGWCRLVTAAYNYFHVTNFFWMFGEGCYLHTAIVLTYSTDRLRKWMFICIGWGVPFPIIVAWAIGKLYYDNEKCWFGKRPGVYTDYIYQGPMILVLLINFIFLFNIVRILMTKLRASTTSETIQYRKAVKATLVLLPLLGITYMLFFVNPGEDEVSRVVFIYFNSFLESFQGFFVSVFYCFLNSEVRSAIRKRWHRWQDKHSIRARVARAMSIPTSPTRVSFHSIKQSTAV
Kind of assay: CRF receptor binding activity (radioligand displacement, Example 25).
Settings: not given
An excerpt: The effectiveness of a compound as a CRF receptor antagonist may be determined by various assay methods. […] CRF receptor affinity may be determined by binding studies that measure the ability of a compound to inhibit the binding of a radiolabeled CRF (e.g., [^125I]tyrosine-CFR) to its receptor (e.g., receptors prepared from rat cerebral cortex membranes). The radioligand binding assay described by DeSouza et al. (supra, 1987) provides an assay for determining a compound's affinity for the CRF receptor.
[formula] where L=radioligand and KD=affinity of radioligand for receptor (Cheng and Prusoff, Biochem. Pharmacol. 22:3099, 1973).
By utilizing radiolabeled CRF ligands, the assay may be used to evaluate the binding activity of the compounds of the present invention with any CRF receptor subtype.
Briefly, the binding assay involves the displacement of a radiolabeled CRF ligand from the CRF receptor. More specifically, the binding assay is performed in 96-well assay plates using 1-10 μg cell membranes from cells stably transfected with human CRF receptors. […] The mixture is incubated for 2 hours at 22° C. followed by separation of the bound and free radioligand by rapid filtration over glass fiber filters. Following three washes, the filters are dried and radioactivity (Auger electrons from ^125I) is counted using a scintillation counter. All radioligand binding data may be analyzed using the non-linear least-squares curve-fitting programs Prism (GraphPad Software Inc) or XLfit (ID Business Solutions Ltd).
On the technique in general: In a radioligand displacement assay an active substance lowers the binding of a labelled ligand.
As a reminder, the Ki is a measure of affinity in units of concentration, obtained from inhibition or displacement. In turn, `CCN(Cc1nc(C)no1)c1cc(C)nc2c(-c3ccc(OC)cc3C)c(C)nn12` [Example 20-1, Ethyl-[3-(4-methoxy-2-methyl-phenyl)-2,5-dimethyl-pyrazolo[1,5-a]pyrimidin-7-yl]-(3-methyl-[1,2,4]oxadiazol-5-ylmethyl)-amine] came in with a Ki below 100 nM.

`CCC(Nc1cc(C)nc2c(-c3ccc(OC)cc3C)c(C)nn12)c1nnc(C)o1` (stereo not drawn) [Example 22-1, [3-(4-Methoxy-2-methyl-phenyl)-2,5-dimethyl-pyrazolo[1,5-a]pyrimidin-7-yl]-[1-(5-methyl-[1,3,4]oxadiazol-2-yl)-propyl]-amine] yielded a Ki below 100 nM.

Still in this assay, the particulars now being: displacement of [125I] tyrosine-sauvagine from membranes of cells stably transfected with human CRF receptors; less than 0.10 μM (i.e., 100 nM); read-out: Ki (CRF receptor binding affinity).
`COc1ccc(-c2c(C)nn3c(N[C@H](C)Cc4noc(C5CC5)n4)cc(C)nc23)c(C)c1` [Example 18-1, [(R)-2-(5-Cyclopropyl-[1,2,4]oxadiazol-3-yl)-1-methyl-ethyl]-[3-(4-methoxy-2-methyl-phenyl)-2,5-dimethyl-pyrazolo[1,5-a]pyrimidin-7-yl]-amine]: the Ki is below 100 nM.

For the compound `COc1ccc(-c2c(C)nn3c(N[C@H](C)Cc4noc(C(F)(F)F)n4)cc(C)nc23)c(C)c1` [Example 18-2, [3-(4-Methoxy-2-methyl-phenyl)-2,5-dimethyl-pyrazolo[1,5-a]pyrimidin-7-yl]-[(R)-1-methyl-2-(5-trifluoromethyl-[1,2,4]oxadiazol-3-yl)-ethyl]-amine], the Ki was below 100 nM.

As to `COc1ccc(-c2c(C)nn3c(N[C@@H](Cc4noc(C)n4)C(F)(F)F)cc(C)nc23)c(C)c1` [Example 19-1, [3-(4-Methoxy-2-methyl-phenyl)-2,5-dimethyl-pyrazolo[1,5-a]pyrimidin-7-yl]-[(S)-2,2,2-trifluoro-1-(5-methyl-[1,2,4]oxadiazol-3-ylmethyl)-ethyl]-amine], the Ki is below 100 nM.

Regarding `COc1ccc(-c2c(C)nn3c(N4CCCCC4Cc4nc(C)no4)cc(C)nc23)c(C)c1` (stereo not drawn) [Example 20-2, 3-(4-Methoxy-2-methyl-phenyl)-2,5-dimethyl-7-[2-(3-methyl-[1,2,4]oxadiazol-5-ylmethyl)-piperidin-1-yl]-pyrazolo[1,5-a]pyrimidine], the Ki is below 100 nM.

As to `CCC(Nc1cc(C)nc2c(-c3ccc(OC)cc3C)c(C)nn12)c1nnco1` (stereo not drawn) [Example 21-1, [3-(4-Methoxy-2-methyl-phenyl)-2,5-dimethyl-pyrazolo[1,5-a]pyrimidin-7-yl]-(1-[1,3,4]oxadiazol-2-yl-propyl)-amine], the Ki was below 100 nM.

On to `COc1ccc(-c2c(C)nn3c(NC(C)Cc4nnc(C(F)(F)F)o4)cc(C)nc23)c(C)c1` (stereo not drawn) [Example 23-2, [3-(4-Methoxy-2-methyl-phenyl)-2,5-dimethyl-pyrazolo[1,5-a]pyrimidin-7-yl]-[1-methyl-2-(5-trifluoromethyl-[1,3,4]oxadiazol-2-yl)-ethyl]-amine], for which the Ki was below 100 nM.

On to `CCC(Nc1cc(C)nc2c(-c3ccc(OC)cc3Cl)c(C)nn12)c1nc(C)no1` (stereo not drawn) [Example 24-1, [3-(2-Chloro-4-methoxy-phenyl)-2,5-dimethyl-pyrazolo[1,5-a]pyrimidin-7-yl]-[1-(3-methyl-[1,2,4]oxadiazol-5-yl)-propyl]-amine], for which the Ki is below 100 nM.

For `CCC(Nc1cc(C)nc2c(-c3ccc(Cl)cc3OC)c(C)nn12)c1nc(C)no1` (stereo not drawn) [Example 24-2, [3-(4-Chloro-2-methoxy-phenyl)-2,5-dimethyl-pyrazolo[1,5-a]pyrimidin-7-yl]-[1-(3-methyl-[1,2,4]oxadiazol-5-yl)-propyl]-amine], the Ki is below 100 nM.

Take `CCC(Nc1cc(C)nc2c(-c3ccc(Cl)cc3C)c(C)nn12)c1nc(C)no1` (stereo not drawn) [Example 24-4, [3-(4-Chloro-2-methyl-phenyl)-2,5-dimethyl-pyrazolo[1,5-a]pyrimidin-7-yl]-[1-(3-methyl-[1,2,4]oxadiazol-5-yl)-propyl]-amine]: the Ki is below 100 nM.

`CCC(Nc1cc(C)nc2c(-c3ccc(C)cc3Cl)c(C)nn12)c1nc(C)no1` (stereo not drawn) [Example 24-6, [3-(2-Chloro-4-methyl-phenyl)-2,5-dimethyl-pyrazolo[1,5-a]pyrimidin-7-yl]-[1-(3-methyl-[1,2,4]oxadiazol-5-yl)-propyl]-amine]: the Ki is below 100 nM.
